Laboratory results as given in patent publication US20250339392A1, “THE USE OF LRRC8 PROTEIN […] PREVENT AND TREAT CARDIOVASCULAR DISEASE” (Washington University, priority 2022, published 2025).
Where a chain is given by its changes, count along the chain named. Entries after “also recorded” stand apart in the source; their conditions may differ.

How the values were obtained:
human platelets = assay: platelet adhesion to collagen in microfluidic device, human whole blood; assay type: cell-based; conditions: 10 μM, collagen-coated microfluidic chamber, vs vehicle (DMSO)
Experimental: Human blood from 4 donors was collected into heparin anticoagulant, pooled and incubated with the fluorescently label DiOC6 (3,39-dihexyloxacarbocyanine iodide; Invitrogen) and either 10 μM SN-401 (DCPIB) or vehicle (DMSO) for 10 minutes. The whole blood was perfused through a polydimethysiloxane (PDMS) microfluidic device plasma bonded to a glass slide patterned with bovine type 1 collagen at a constant upstream pressure for 5 minutes followed by PBS for 5 minutes. Platelet accumulation was captured using an Olympus IX83 inverted microscope and the surface area coverage of platelets quantified using ImageJ.
FIG. 23A-23B depict how SN-401 impairs human platelet adhesion under physiologic shear-flow conditions in collagen-coated microfluidic flow chambers. n=4 blood draws from 4 subjects on 2 separate days. FIG. 23A depicts the percentage of surface area covered by adherent platelets over time in human whole-blood treated with vehicle or 10 μM SN-401. p=0.1 for 2-way Anova. FIG. 23B depicts the area under the curve (AUC) calculated from FIG. 23A for vehicle and SN-401. p=0.1 for t-test.

LRRC8 channel [1] = target: T1, LRRC8 channel (Homo sapiens, UniProt Q8IWT6); assay: swell-activated currents recorded from HEK cells; assay type: cell-based
T1 construct: endogenous in cells; host or cells: HEK cells
T1 sequence (Q8IWT6 1-810): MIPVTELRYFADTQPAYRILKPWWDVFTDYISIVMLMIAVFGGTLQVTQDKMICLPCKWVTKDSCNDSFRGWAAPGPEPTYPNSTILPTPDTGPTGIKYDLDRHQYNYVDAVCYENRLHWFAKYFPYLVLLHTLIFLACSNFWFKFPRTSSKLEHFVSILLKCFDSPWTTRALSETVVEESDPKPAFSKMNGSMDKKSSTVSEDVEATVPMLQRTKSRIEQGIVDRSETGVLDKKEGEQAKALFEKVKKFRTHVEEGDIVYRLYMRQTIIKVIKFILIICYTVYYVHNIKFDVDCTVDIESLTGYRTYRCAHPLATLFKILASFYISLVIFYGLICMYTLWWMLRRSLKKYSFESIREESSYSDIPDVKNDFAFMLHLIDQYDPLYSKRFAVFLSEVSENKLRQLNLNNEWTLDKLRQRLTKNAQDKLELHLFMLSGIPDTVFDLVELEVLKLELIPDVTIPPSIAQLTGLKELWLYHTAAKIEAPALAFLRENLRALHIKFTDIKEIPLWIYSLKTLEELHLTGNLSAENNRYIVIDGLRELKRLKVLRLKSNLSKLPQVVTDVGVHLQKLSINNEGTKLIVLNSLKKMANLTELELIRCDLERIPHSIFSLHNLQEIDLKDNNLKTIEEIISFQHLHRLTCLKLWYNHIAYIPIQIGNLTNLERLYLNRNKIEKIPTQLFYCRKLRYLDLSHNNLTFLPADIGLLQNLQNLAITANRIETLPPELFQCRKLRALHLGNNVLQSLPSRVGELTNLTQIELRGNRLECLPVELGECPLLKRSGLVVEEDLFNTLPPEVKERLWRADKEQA
Excerpt: FIG. 25A-25D depict how congeners SN-418 and SN-418C are potent inhibitors of swell-activated currents recorded from HEK cells. FIG. 25A depicts the chemical structure of SN-418. FIG. 25B depicts the chemical structure of SN-418C. FIG. 25C depicts currents in the presence of varying concentrations of SN-418 and SN-401 normalized to the currents activated in hypotonic solution alone. […] FIG. 25D depicts currents in the presence of varying concentrations of SN-418C and SN-401 normalized to the currents activated in hypotonic solution alone.
Examples of these are SN-418 and SN-418C (FIG. 25A&25B), which include modification in the alkyl chain+/−cyclopropyl group to increase LRRC8 channel inhibition ˜10-fold over SN-401 (FIG. 25C&25D). SN-418C was then tested for antiplatelet activity in vitro.

LRRC8 channel [2] = target: T2, LRRC8 channel (Mus musculus, UniProt Q80WG5); assay: perforated patch-clamp of ICl,SWELL in freshly isolated murine megakaryocytes; assay type: cell-based; set-up: inhibition of ICI,SWELL currents: dose or concentration left out as unconfirmed; conditions: for inhibition of swell-activated current: murine MK, hypotonic solution (HYPO, 205 mOsm), 10 μM
T2 construct: endogenous in cells; host or cells: freshly isolated murine megakaryocytes (WT = LRRC8A fl/fl littermate controls)
T2 sequence (Q80WG5 1-810): T1 sequence (Q8IWT6 1-810) with P75S, G76S, I86V, I276A, A591V, I715V, T722A, N792S
Excerpt: FIG. 17A depicts a murine MK perforated patch-clamp. FIG. […] FIG. 17C depicts the current-voltage relationship in WT MK. FIG. 17D depicts the current-voltage relationship in cKO MK. FIG. 17E depicts mean outward and inward currents at +100 mV and −100 mV respectively, in WT, WT+SN401, and cKO MK. * p<0.05;** p<0.01.
To validate the biology implied by the human genetic studies, megakaryocyte (MK)-specific LRRC8A conditional knockout (cKO) mice were generated by crossing our LRRC8A^fl/fl mouse (SWELL1^fl/fl)^35-31 with the platelet factor4-driven Cre recombinase mouse (Pf4-Cre) to generate LRRC8A^fl/fl;Pf4-cre+/− (cKO) and littermate control LRRC8A^fl/fl mice (WT). Complete deletion of LRRC8A protein from cKO mouse platelets was confirmed while maintaining expression of the platelet marker b3 integrin (FIG. 16). To confirm that LRRC8 proteins form functional VRAC/ICI,SWELL channels in platelets, ICI,SWELL was measured in freshly isolated murine MK using the perforated patch configuration of the patch-clamp technique (FIG. 17A). […] This hypotonically-activated, swell-activated current is entirely abolished in cKO MKs (FIG. 17C-17D), confirming the SN-401-inhibited current in murine MKs to be entirely LRRC8A mediated.

C57BL/6 mice = assay: tail wound thrombosis / tail bleeding assay; assay type: in vivo, mouse
Experimental: To determine if acute inhibition of LRRC8 channel activity affected platelet function in vivo, vehicle or the known LRRC8 channel inhibitor SN-401 (DCPIB) was administered to 25 to 30-week old C57BL/6 mice by IP injection, and in vivo thrombosis was quantified using an assay for tail wound thrombosis. Specifically, 20 minutes following IP injection with vehicle or 10 mg/kg SN-401, mouse tails were amputated 5 mm from the tail tip, placed in normal saline at 37° C. for 15 minutes, and the relative blood loss during that period was quantified by estimating the hemoglobin concentration in the normal saline by measuring light absorbance at 550 nm.
FIG. 24 depicts how SN-401 treatment increases mouse tail bleeding. Mice were pretreated with Vehicle or SN401 (10 mg/kg i.p×1) and tail bleeding quantified after 15 minutes by measuring absorbance of hemoglobin at 550 nm. * p<0.05.
To determine if acute inhibition of LRRC8 channel activity affected platelet function in vivo, vehicle or the known LRRC8 channel inhibitor SN-401 (DCPIB) was administered to 25 to 30-week old C57BL6 mice by IP injection, and in vivo thrombosis was quantified using an assay for tail wound thrombosis. […]

MEG01 cells = assay: swell-activated currents in human MK cell line MEG01; assay type: cell-based; conditions: WT MEG01 cells, hypotonic solution (HYPO, 210 mOsm), 10 μM
Experimental: FIG. 29A-29C depicts how the human MK cell line, MEG01, had robust, SN-4XX-inhibited, swell-activated currents. FIG. 29A depicts current density over time in response to swelling with hypotonic solution (HYPO, 210 mOsm), and inhibition by 10 μM SN401 in WT MEG01 cells. FIG. 29B depicts the current-voltage relationship in WT MEG01 cells in response to HYPO and inhibition by 10 μM SN401. FIG. 29C depicts the current-voltage relationship in WT MEG01 cells in response to HYPO and inhibition by 3 μM SN418c.

Question: With `CCCCC1(C2CCCC2)Cc2cc(OCCCC(=O)O)c(Cl)c(Cl)c2C1=O` (stereo not drawn) [SN-401, 4-((2-Butyl-6,7-dichloro-2-cyclopentyl-1-oxo-2,3-dihydro-1H-inden-5-yl)oxy)butanoic acid] as the compound, how does the “adhesion of human platelets to collagen (surface area coverage)” value (human platelets) read?
Answer: significantly reduced; also recorded: significantly inhibited; also recorded: impairs

Question: What about the IC50 (LRRC8 channel [1]) of the same compound?
Answer: 4 µM

Question: And the “inhibition of ICI,SWELL currents” value (LRRC8 channel [2]; WT MK, hypotonic swelling)?
Answer: fully inhibited

Question: What about the “inhibition of swell-activated current” value (LRRC8 channel [2]) of the same compound?
Answer: robust inhibition

Question: And the “inhibition of swell-activated current” value (LRRC8 channel [2]; listed as SN401)?
Answer: inhibition

Question: And the “mean amount of tail blood loss relative to vehicle” value (C57BL/6 mice; 10 mg/kg IP, 20 minutes before tail amputation, 15 minutes, absorbance at 550 nm)?
Answer: 4 fold

Question: And the tail bleeding (C57BL/6 mice; 10 mg/kg i.p. x1, hemoglobin absorbance at 550 nm after 15 minutes)?
Answer: increases

Question: And the “inhibition of swell-activated (ICI,SWELL) current” value (MEG01 cells)?
Answer: completely inhibited

Question: What about the “inhibition of swell-activated (ICI,SWELL) current” value (MEG01 cells; listed as SN401) of the same compound?
Answer: inhibition
